According to ChEMBL document CHEMBL1221291, “Studies on the structure-activity relationship of 1,3,3,4-tetra-substituted pyrrolidine embodied CCR5 receptor antagonists. Part 2: Discovery of highly potent anti-HIV agents” (Bioorg Med Chem Lett, 2010):

Assays:
[1] = tested on: Human immunodeficiency virus 1; test: Antiviral activity against R5 tropic HIV1 BaL infected in human PBMC; type: functional, organism-based; conditions: Human immunodeficiency virus 1, BaL
[2] = target: C-C chemokine receptor type 5 (Homo sapiens, UniProt P51681); test: Inhibition of human CCR5 expressed in CHO cells assessed as inhibition of RANTES-stimulated [35S]GTPgammaS binding; type: functional, cell-based
[3] = Cytotoxicity against human PBMC; type: cell-based
hERG (KCNH2) = hERG (KCNH2) (Homo sapiens, UniProt Q12809); test: Inhibition of human ERG at 1 uM
hERG (KCNH2), sequence (Q12809 whole entry): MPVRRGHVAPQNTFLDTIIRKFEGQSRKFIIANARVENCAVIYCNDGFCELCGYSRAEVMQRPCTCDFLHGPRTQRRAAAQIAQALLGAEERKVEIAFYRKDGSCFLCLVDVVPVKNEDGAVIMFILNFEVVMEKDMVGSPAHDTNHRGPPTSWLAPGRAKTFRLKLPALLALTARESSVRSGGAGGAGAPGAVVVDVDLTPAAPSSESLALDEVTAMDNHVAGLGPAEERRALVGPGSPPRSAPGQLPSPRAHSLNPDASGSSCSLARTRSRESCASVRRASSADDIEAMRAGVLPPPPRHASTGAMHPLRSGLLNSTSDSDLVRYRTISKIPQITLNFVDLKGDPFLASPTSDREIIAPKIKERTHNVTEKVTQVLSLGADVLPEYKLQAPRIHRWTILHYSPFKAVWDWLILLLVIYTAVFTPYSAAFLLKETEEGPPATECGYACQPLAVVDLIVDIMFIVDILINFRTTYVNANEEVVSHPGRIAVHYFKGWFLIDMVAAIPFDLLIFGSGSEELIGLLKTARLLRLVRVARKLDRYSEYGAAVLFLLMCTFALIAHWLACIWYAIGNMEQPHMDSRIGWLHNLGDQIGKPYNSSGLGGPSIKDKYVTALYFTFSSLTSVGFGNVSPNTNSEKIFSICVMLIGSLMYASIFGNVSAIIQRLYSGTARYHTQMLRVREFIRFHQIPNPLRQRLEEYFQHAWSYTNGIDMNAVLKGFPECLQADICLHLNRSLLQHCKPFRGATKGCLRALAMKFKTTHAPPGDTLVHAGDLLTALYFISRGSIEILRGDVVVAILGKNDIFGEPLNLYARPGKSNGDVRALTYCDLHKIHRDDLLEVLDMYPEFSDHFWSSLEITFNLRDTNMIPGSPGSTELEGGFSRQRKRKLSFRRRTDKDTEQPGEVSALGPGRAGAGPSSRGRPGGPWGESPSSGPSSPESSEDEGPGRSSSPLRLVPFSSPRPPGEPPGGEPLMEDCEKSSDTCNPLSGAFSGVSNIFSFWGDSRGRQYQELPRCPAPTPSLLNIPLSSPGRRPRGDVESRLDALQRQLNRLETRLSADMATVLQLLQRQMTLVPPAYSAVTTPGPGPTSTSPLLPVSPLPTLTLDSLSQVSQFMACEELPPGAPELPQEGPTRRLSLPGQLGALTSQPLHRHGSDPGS

C-C chemokine receptor type 5, sequence (P51681 whole entry): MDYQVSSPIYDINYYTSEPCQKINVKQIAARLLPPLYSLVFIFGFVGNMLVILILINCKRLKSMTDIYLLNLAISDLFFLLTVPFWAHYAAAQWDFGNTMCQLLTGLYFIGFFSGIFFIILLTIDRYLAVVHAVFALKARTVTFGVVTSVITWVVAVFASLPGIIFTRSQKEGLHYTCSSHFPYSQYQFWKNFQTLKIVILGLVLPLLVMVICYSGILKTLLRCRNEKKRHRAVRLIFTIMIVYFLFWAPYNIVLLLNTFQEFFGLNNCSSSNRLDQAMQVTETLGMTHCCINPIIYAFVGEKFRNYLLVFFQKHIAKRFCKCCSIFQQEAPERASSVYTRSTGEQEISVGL

| Structure (SMILES) | EC50 [1] [nM] | IC50 [2] [nM] | CC50 [3] [nM] | inhibition at 1 µM (hERG (KCNH2)) [%] |
| --- | --- | --- | --- | --- |
| C=CCN(C(=O)OCc1ccc([N+](=O)[O-])cc1)C1CCN(C[C@H]2CN(C(=O)C3CCCC3)C[C@]2(O)c2ccc(OC)cc2)CC1 | > 100 | 318 | – | – |
| C=CCN(C(=O)OCc1ccc([N+](=O)[O-])cc1)C1CCN(C[C@H]2CN(C(=O)C3CCCC3)C[C@]2(O)c2ccc(F)cc2)CC1 | > 100 | 30 | – | – |
| C=CCN(C(=O)OCc1ccc([N+](=O)[O-])cc1)C1CCN(C[C@H]2CN(C(=O)C3CCCC3)C[C@]2(O)c2cccc(F)c2)CC1 | < 0.4 | 8.85 | – | – |
| C=CCN(C(=O)NCc1ccc(C(F)(F)F)cc1)C1CCN(C[C@H]2CN(C(=O)C3CCCC3)C[C@]2(O)c2ccc(F)cc2)CC1 | 20 | 38.3 | – | – |
| C=CCN(C(=O)NCc1ccc(C(F)(F)F)cc1)C1CCN(C[C@H]2CN(C(=O)C3CCCC3)C[C@]2(O)c2cccc(F)c2)CC1 | 6 | 1.38 | – | – |
| C=CCN(C(=O)Cc1ccc(S(=O)(=O)NC)cc1)C1CCN(C[C@H]2CN(C(=O)C3CCCC3)C[C@]2(O)c2ccc(F)cc2)CC1 | > 100 | 11.2 | – | – |
| C=CCN(C(=O)Cc1ccc(S(=O)(=O)NC)cc1)C1CCN(C[C@H]2CN(C(=O)C3CCCC3)C[C@]2(O)c2cccc(F)c2)CC1 | 4.5 | 2.98 | – | – |
| C=CCN(C(=O)NCc1ccc(C(F)(F)F)cc1)[C@H]1C[C@H]2CC[C@@H](C1)N2C[C@H]1CN(C(=O)C2CCCC2)C[C@]1(O)c1cccc(F)c1 | < 0.005 | 6.77 | 12500 | 89.5 |
| C=CCN(C(=O)NCc1ccc(S(=O)(=O)N(C)C)cc1)[C@H]1C[C@H]2CC[C@@H](C1)N2C[C@H]1CN(C(=O)C2CCCC2)C[C@]1(O)c1cccc(F)c1 | 0.0055 | 11.4 | 55000 | 31.3 |
| C=CCN(C(=O)NCc1ccc(F)cc1)[C@H]1C[C@H]2CC[C@@H](C1)N2C[C@H]1CN(C(=O)C2CCCC2)C[C@]1(O)c1cccc(F)c1 | 1.75 | 30 | 42000 | – |
| C=CCN(C(=O)NCc1ccc(C(F)(F)F)cc1)[C@@H]1C[C@H]2CC[C@@H](C1)N2C[C@H]1CN(C(=O)C2CCCC2)C[C@]1(O)c1cccc(F)c1 | > 100 | 14.3 | 103000 | 88.6 |
| C=CCN(C(=O)OCc1ccc([N+](=O)[O-])cc1)C1CCN(C[C@H]2CN(C(=O)C3CCCC3)C[C@]2(O)c2ccccc2)CC1 [NIFEVIROC] | < 0.4 | – | – | – |
